Assay results from patent US20180185408A1, “ANTIFUNGAL NYLON-3 POLYMERS AND COMBINATION THERAPY USING THEM TO TREAT FUNGAL INFECTIONS” (priority 2016, published 2018).
Converted amounts (≈) assume the structure as drawn. “And” between values parts separate entries of the source, which are not always exact repeats. Identical values can stand only once. Like-named read-outs stand apart in the source and are kept apart here.

What was measured:
Assay type in all cases: cell-based
[1] = tested on: Candida albicans; test: MIC by broth microdilution (CLSI M27-A3); set-up: polymer efficacy against budding yeasts, 50%: unit not given here; details: for MIC: read-out: MIC
[2] = tested on: Cryptococcus neoformans; test: MIC by broth microdilution (CLSI M27-A3); details: for MIC: […]10^3 cells/mL
[3] = tested on: Cryptococcus gattii; test: Minimum fungicidal concentration (MFC), plating after MIC assay; details: Cryptococcus gattii, Sensitive, RPMI 1640 (0.2% Glucose), […]10^3 cells/mL, 37° C., read-out: MFC
[4] = tested on: Candida spp.; test: MIC and MFC by broth microdilution, summary over Candida strains
[5] = tested on: Candida albicans; test: Minimum fungicidal concentration (MFC), plating after MIC assay
[6] = tested on: Cryptococcus gattii; test: MIC by broth microdilution (CLSI M27-A3); details: Cryptococcus gattii, […]10^3 cells/mL, read-out: MIC
[7] = tested on: Cryptococcus spp.; test: MIC and MFC by broth microdilution, summary over Cryptococcus strains
[8] = tested on: Candida lusitaniae; test: Minimum fungicidal concentration (MFC), plating after MIC assay; details: Clavispora lusitaniae, C. Lusitania (CL3), Sensitive; RPMI 1640 (0.2% Glucose); […]10^5 cells/mL; 30° C.; read-out: MFC
[9] = tested on: Cryptococcus neoformans; test: as above
[10] = tested on: Saccharomyces cerevisiae; test: MIC100 against yeast (CLSI M27-A3); details: Saccharomyces cerevisiae W303
[11] = tested on: Candida lusitaniae; test: MIC by broth microdilution (CLSI M27-A3)
[12] = tested on: filamentous fungi; test: MIC100 against non-Aspergillus filamentous fungi (CLSI M38-A2)
[13] = tested on: A. flavus; test: MIC100 against species of the Aspergillus genus; details: Aspergillus flavus isolate NRRL3357
Source text: We assessed the antifungal activity of MM-TM, DM-TM, and NM against 18 different species within the genus Aspergillus.

OC(Cn1cncn1)(Cn1cncn1)c1ccc(F)cc1F [FLC, fluconazole]
MIC50 ([1]; ATCC90028, Candida albicans ATCC 90028): 1 mg/L (≈ 3.27 µM) | polymer efficacy against budding yeasts, 50% ([1]; C. albicans CA1, ATCC90028, Blood): 1 | polymer efficacy against budding yeasts, 50% ([1]; C. albicans CA2, SC5314): 0.25 | polymer efficacy against budding yeasts, 50% ([1]; C. albicans CA3, Blood, Azole resistant): >64 | MIC50 ([1]; Candida albicans CA3, Resistance Azole): > 64 mg/L | MIC ([1]; Candida albicans, C. albicans (E4), Amp B Resistant, RPMI 1640 (0.2% Glucose), […]10^5 cells/mL, 30° C.): > 200 mg/L | MIC ([1]; Candida albicans, C. albicans (E4), […]10^3 cells/mL, 35°C): > 654 µM | MIC ([1]; Candida albicans, C. albicans (Gu5), Fluconazole Resistant, RPMI 1640 (0.2% Glucose), […]10^5 cells/mL, 30° C.): > 200 mg/L | MIC ([1]; Candida albicans, C. albicans (Gu5), […]10^3 cells/mL, 35°C): > 654 µM | MIC ([1]; Candida albicans, C. albicans (K1), Fluconazole Resistant, RPMI 1640 (0.2% Glucose), […]10^5 cells/mL, 30° C.): > 200 mg/L | MIC ([1]; Candida albicans, C. albicans (K1), […]10^3 cells/mL, 35°C): > 654 µM | MIC ([1]; Candida albicans, C. albicans (SCG5314), Sensitive, RPMI 1640 (0.2% Glucose), […]10^5 cells/mL, 30° C.): < 0.2 mg/L | MIC50 ([1]; Candida albicans, SC5314): 0.25 mg/L (≈ 0.816 µM) | MIC ([1]; Candida albicans, SC5314, C. albicans (SC5314), […]10^3 cells/mL, 35°C): > 654 µM | polymer efficacy against budding yeasts, 50% [2]: >64 | polymer efficacy against budding yeasts, 50% ([2]; C. neoformans CN1, Clinical isolate, Azole susceptible): 4 | MIC ([2]; Cryptococcus neoformans, 48 h, C21F3, 30°C, OD600 48 h): 1.6 mg/L | MIC ([2]; Cryptococcus neoformans, 48 h, C21F3, 30°C, OD600 48 h, Table 15): 5.2 µM | MIC ([2]; Cryptococcus neoformans, 48 h, H99, 30°C, OD600 48 h): 3.1 mg/L | MIC ([2]; Cryptococcus neoformans, 48 h, H99, 30°C, OD600 48 h, Table 15): 10.1 µM | MIC ([2]; Cryptococcus neoformans, 48 h, JEC21, 30°C, OD600 48 h): 1.6 mg/L | MIC ([2]; Cryptococcus neoformans, 48 h, JEC21, 30°C, OD600 48 h, Table 15): 5.2 µM | MIC ([2]; Cryptococcus neoformans, C. neoformans (C21F3), 30°C): 5.2 µM | MIC ([2]; Cryptococcus neoformans, C. neoformans (H99), Sensitive, RPMI 1640 (0.2% Glucose), 37° C.): 3.1 mg/L | MIC ([2]; Cryptococcus neoformans, C. neoformans (H99), 30°C): 10.1 µM | MIC ([2]; Cryptococcus neoformans, C. neoformans (JEC21), Sensitive, RPMI 1640 (0.2% Glucose), 37° C.): 1.6 mg/L | MIC ([2]; Cryptococcus neoformans, C. neoformans (JEC21), 30°C): 5.2 µM | MIC50 ([2]; Cryptococcus neoformans, Cryptococcus neoformans CN1): 4 mg/L (≈ 13.1 µM) | MFC ([3]; C. gattii (C751)): 37.5 mg/L (≈ 122 µM) | MFC ([3]; C. gattii (WM275)): > 100 mg/L | MFC ([4]; Candida resistant strains (totally resistant)): > 654 µM | MIC and MFC values ([4]; Candida sensitive strains): low μM | MFC ([5]; C. albicans (E4), Amp B Resistant, RPMI 1640 (0.2% Glucose), […]10^5 cells/mL, 30° C.): >200 µg/mL | MFC ([5]; C. albicans (Gu5), Fluconazole Resistant, RPMI 1640 (0.2% Glucose), […]10^5 cells/mL, 30° C.): >200 µg/mL | MFC ([5]; C. albicans (K1), Fluconazole Resistant, RPMI 1640 (0.2% Glucose), […]10^5 cells/mL, 30° C.): >200 µg/mL | MFC ([5]; C. albicans (SCG5314), Sensitive, RPMI 1640 (0.2% Glucose), […]10^5 cells/mL, 30° C.): >200 µg/mL | MFC ([5]; Candida albicans, SC5314, read-out: MFC): > 200 µg/mL and > 653 µM | MFC ([5]; Candida albicans, read-out: MFC): > 200 µg/mL and > 653 µM | MFC ([5]; E4, […]10^5 cells/mL, 30°C, avg., listed as FLU): >200 µg/mL | MFC ([5]; E4, […]10^5 cells/mL, 30°C, avg., listed as FLU, read-out: MFC): >653 µM | MFC ([5]; E4, […]10^5 cells/mL, 30°C, trial 1, listed as FLU): >200 µg/mL | MFC ([5]; E4, […]10^5 cells/mL, 30°C, trial 1, listed as FLU, read-out: MFC): >653 µM | MFC ([5]; E4, […]10^5 cells/mL, 30°C, trial 2, listed as FLU): >200 µg/mL | MFC ([5]; E4, […]10^5 cells/mL, 30°C, trial 2, listed as FLU, read-out: MFC): >653 µM | MFC ([5]; Gu5, […]10^5 cells/mL, 30°C, avg., listed as FLU): >200 µg/mL | MFC ([5]; Gu5, […]10^5 cells/mL, 30°C, avg., listed as FLU, read-out: MFC): >653 µM | MFC ([5]; Gu5, […]10^5 cells/mL, 30°C, trial 1, listed as FLU): >200 µg/mL | MFC ([5]; Gu5, […]10^5 cells/mL, 30°C, trial 1, listed as FLU, read-out: MFC): >653 µM | MFC ([5]; Gu5, […]10^5 cells/mL, 30°C, trial 2, listed as FLU): >200 µg/mL | MFC ([5]; Gu5, […]10^5 cells/mL, 30°C, trial 2, listed as FLU, read-out: MFC): >653 µM | MFC ([5]; K1, […]10^5 cells/mL, 30°C, avg., listed as FLU): >200 µg/mL | MFC ([5]; K1, […]10^5 cells/mL, 30°C, avg., listed as FLU, read-out: MFC): >653 µM | MFC ([5]; K1, […]10^5 cells/mL, 30°C, trial 2, listed as FLU): >200 µg/mL | MFC ([5]; K1, […]10^5 cells/mL, 30°C, trial 2, listed as FLU, read-out: MFC): >653 µM | MFC ([5]; SC5314, […]10^5 cells/mL, 30°C, avg., listed as FLU): >200 µg/mL | MFC ([5]; SC5314, […]10^5 cells/mL, 30°C, avg., listed as FLU, read-out: MFC): >653 µM | MFC ([5]; SC5314, […]10^5 cells/mL, 30°C, trial 1, listed as FLU): >200 µg/mL | MFC ([5]; SC5314, […]10^5 cells/mL, 30°C, trial 1, listed as FLU, read-out: MFC): >653 µM | MIC ([6]; 48 h, C751, 30°C, OD600 48 h, Table 15): 5.2 µM | MIC ([6]; 48 h, C751, 30°C, OD600 48 h): 1.6 mg/L | MIC ([6]; 48 h, WM276, 30°C, OD600 48 h, Table 15): 2.6 µM | MIC ([6]; 48 h, WM276, 30°C, OD600 48 h): 0.8 mg/L | MIC ([6]; C. gattii (C751), Sensitive, RPMI 1640 (0.2% Glucose), 37° C.): 1.6 mg/L | MIC ([6]; C. gattii (C751), 30°C): 5.2 µM | MIC ([6]; C. gattii (WM275), Sensitive, RPMI 1640 (0.2% Glucose), 37° C.): 0.8 mg/L | MIC ([6]; C. gattii (WM276), 30°C): 2.6 µM | MIC ([7]; Cryptococcus): ≤ 10 µM | MFC ([7]; Cryptococcus test strains (FLC: all strains except C21F3), read-out: MFC): > 100 µM | MFC [8]: 50 mg/L (≈ 163 µM) | concentration at which strain was killed (MFC) ([9]; C21F3): ~5 µM | MFC ([9]; Cryptococcus neoformans, C. neoformans (C21F3), Rapamycin Resistant, RPMI 1640 (0.2% Glucose), […]10^3 cells/mL, 37° C.): 1.6 mg/L (≈ 5.22 µM) | MIC50 [10]: < 1 mg/L | MIC ([11]; CL3, […]10^3 cells/mL, 35°C, OD600 24 h, avg., listed as FLU): >200 µg/mL | MIC ([11]; CL3, […]10^3 cells/mL, 35°C, OD600 24 h, avg., listed as FLU, read-out: MIC): >653.0 µM | MIC ([11]; CL3, […]10^3 cells/mL, 35°C, OD600 24 h, trial 2, listed as FLU): >200 µg/mL | MIC ([11]; CL3, […]10^3 cells/mL, 35°C, OD600 24 h, trial 2, listed as FLU, read-out: MIC): >653.0 µM | MIC ([11]; CL3, […]10^5 cells/mL, 30°C, OD600 48 h, avg., listed as FLU): 0.8 µg/mL | MIC ([11]; CL3, […]10^5 cells/mL, 30°C, OD600 48 h, avg., listed as FLU, read-out: MIC): 2.6 µM | MIC ([11]; CL3, […]10^5 cells/mL, 30°C, OD600 48 h, trial 2, listed as FLU): 0.8 µg/mL | MIC ([11]; CL3, […]10^5 cells/mL, 30°C, OD600 48 h, trial 2, listed as FLU, read-out: MIC): 2.6 µM | MIC ([11]; Clavispora lusitaniae, 24 h, read-out: MIC): > 200 µg/mL and > 653 µM | MIC ([11]; Clavispora lusitaniae, 48 h, read-out: MIC): 0.8 µg/mL and 2.6 µM | MIC50 ([12]; Cryptococcus depauperatus, CBS7855, Filobasidiella depauperata isolate CBS 7855, 50% reduction in growth): 64 mg/L (≈ 209 µM)

CCC(C)n1ncn(-c2ccc(N3CCN(c4ccc(OCC5COC(Cn6cncn6)(c6ccc(Cl)cc6Cl)O5)cc4)CC3)cc2)c1=O (centres unmarked) [Itraconazole, itraconazole]
MIC [13]: < 1 mg/L | MIC ([12]; Penicillium expansum): 1 mg/L (≈ 1.42 µM) | MIC ([12]; Talaromyces marneffei): 0.125 mg/L (≈ 0.177 µM)
